Data from US7708999B2, “Remedies for arthritis” (Kyowa Hakko Kirin Co., Ltd., priority 2001, dated 2010).
Numbering of substitutions follows the chain as printed.

Key:
[1] = tested on: mouse collagen-induced arthritis model; test: Mouse collagen-induced arthritis model; format: in vivo; conditions: positive control, 0.3 mg/mL, 1 mL per 100 g orally
Experimental: The mouse collagen-induced arthritis model was prepared in the following manner according to the method of Kamada et al., (Kamada H. et al., Jpn. J. Pharmacol., 70, 169-175, 1996) using DBA/1J mice (male, 7 weeks old, Japan Charles River).
A bovine cartilage-derived type II collagen solution (manufactured by Collagen Gijutsu Kenshu) was mixed with a Freund's complete adjuvant (manufactured by Iatron) under ice cooling to form an emulsion which was adjusted such that the final concentration of the type II collagen became 1.5 mg/mL. The emulsion was intradermally injected in amount of 100 μL at the base of the tail of the mouse for sensitization. Twenty-one days later, the additional immunization was performed in the same manner. One group consisted of 10 mice. Anti-FGF-8 neutralizing antibody KM1334 was dissolved in a saline (manufactured by Otsuka Seiyaku Kojo) to a final concentration of 2 mg/mL, and the solution was intraperitoneally administered to a KM1334 administrated group at a dose of 200 μL for each mouse once a day on days 21, 25, 28, 32, 35 and 39 from the initial sensitization of the mouse collagen-induced arthritis model. […] The change with time of edemas of all limbs in collagen-induced arthritis was evaluated by the scoring from 0 to 4 in each limb to a total of 16 at the maximum score in all limbs. […]

[2] = tested on: rat adjuvant arthritis model; test: Rat adjuvant arthritis model; format: in vivo
Experimental: The rat adjuvant arthritis model was performed in the following manner according to the method of Pearson et al. (Pearson CM. et al., Arthritis Rheum., 5, 654-658, 1962) using Lewis rats (female, 8 weeks old, Japan Charles River).
Mycobacterium butyricum (manufactured by Difco) was suspended in a liquid paraffin (manufactured by Wako Pure Chemical Industries, Ltd.) to a final concentration of 6 mg/mL, and sterilized with a autoclave. The resulting solution was intradermally injected into the rat right hind pad in an amount of 100 μL for sensitization. One group consisted of 8 to 10 rats. Anti-FGF-8 neutralizing antibody KM1334 was dissolved in saline to a final concentration of 2 mg/mL. The solution was intraperitoneally administered to a KM1334 administrated group once a day at a dose of 0.5 mL per 100 g of the body weight for each rat on the sensitization day of the rat adjuvant arthritis model and on days 3, 7, 10, 14 and 17 from the sensitization. To saline administrated group, only saline was intraperitoneally administered instead of the anti-FGF-8 neutralizing antibody KM1334 solution. Further, sodium diclofenac, an antiinflammatory agent, was dissolved in a 0.5 w/v % methyl cellulose solution to a final concentration of 0.3 mg/mL, and the solution was orally administered to a sodium diclofenac administrated group as a positive control once a day at a dose of 1 mL per 100 g of the body weight on days 4, 7 to 11 and 14 to 18 from the adjuvant sensitization day. 50 mg of methotrexate® for injection (manufactured by Wyeth Japan) as a metabolic antagonist was dissolved in a 0.5 w/v % methyl cellulose solution to a final concentration of 0.01 mg/mL, and the solution was administered to a methotrexate administrated group in the same manner as in the sodium diclofenac administrated group. Prednisolone (manufactured by Sigma-Aldrich), a steroidal agent, was suspended in a 0.5 w/v % methyl cellulose solution to a final concentration of 0.3 mg/mL, and the suspension was administered to a prednisolone administrated group in the same manner as in the sodium diclofenac administrated group. Further, a 0.5 w/v % methyl cellulose solution alone was orally administered to a solvent administrated group in the same manner. An untreated group was used, and it was not subjected to sensitization with Mycobacterium butyricum and administration of an agent. The volumes of the adjuvant-treated paw and the adjuvant-untreated paw were measured as time goes by using a device for measuring edemas of rat hind paw (TK-101, manufactured by Unicom).
Using urine collected for 24 hours at day 20 and day 21 after the sensitization, the amounts of glycosaminoglycan, deoxypyridinoline, hydroxyproline and creatinine in urine were measured. The amount of glycosaminoglycan in urine was measured by the DMMB method described in Example 1. The amount of hydroxyproline in urine was measured by the method of Ikeda et al. (Ikeda Shingo et al., Tokyo Eiken Nenpo, 36 277-282, 1985). That is, 0.8 mL of hydrochloric acid for amino acid analysis (manufactured by Kanto Kagaku) was added to 0.8 mL of urine to hydrolyze at 110° C. for 15 hours. To 0.5 mL of the hydrolyzed sample was added 2 mL of a 1.2 mol/L sodium hydroxide solution for neutralization. 1 mL of isopropanol was added to 0.5 mL of the neutralized sample, and 1 ml of an oxidant solution was added. The mixture was stirred well, and allowed to stand at room temperature for 5 minutes. […]

FGF-8 = molecular target: T1, FGF-8 (Homo sapiens, UniProt P55075); test: FGF-8 binding activity by BIAcore 2000, immobilized FGF-8; conditions: antibody 50 μg/mL; FGF-8 immobilized 4498 RU
T1 construct: purchased R & D
T1 sequence (P55075 23-215 isoform P55075-3 limits assumed): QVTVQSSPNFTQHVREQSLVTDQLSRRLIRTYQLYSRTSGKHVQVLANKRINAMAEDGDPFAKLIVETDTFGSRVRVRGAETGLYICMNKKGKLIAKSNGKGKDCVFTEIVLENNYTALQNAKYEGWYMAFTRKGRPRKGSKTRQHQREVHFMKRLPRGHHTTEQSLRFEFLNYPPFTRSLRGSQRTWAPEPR
Experimental: In order to examine the FGF-8 binding activity of the various anti-FGF-8 neutralizing CDR-grafted antibodies obtained in 4. of Reference Example 2 in more detail, the FGF-8 binding activity of the various anti-FGF-8 neutralizing CDR-grafted antibodies was measured and compared in the following manner using BIAcore2000 (manufactured by BIACORE). The YB2/0 cell-derived anti-FGF-8 neutralizing chimeric antibody KM3334 obtained in 3.(2) of Reference Example 1 was used as a positive control.
HBS-EP (manufactured by BIACORE) was used hereinafter as a sample diluent and a buffer during measurement. First, Sensor Chip CM5 (manufactured by BIACORE) was installed, and FGF-8 (manufactured by R & D) dissolved in 31.25 μg/mL of 10 mmol/L acetate buffer solution (pH 4.0) was immobilized on the surface of the sensor chip by the amine coupling method. The immobilization amount measured by using a resonance signal (RU) as an index was 4498 RU.
60 μL of each of the antibody solutions was added to an FGF-8 immobilized flow cell at a flow rate of 20 μL/min, and the dissociation reaction was then monitored for 3 minutes. After the dissociation reaction, 20 μL of a 10 mmol/L glycine-hydrochloride solution (pH 1.5) was added to the flow cell twice continuously to regenerate the surface of the chip. This cycle was performed with the antibody solution at various concentrations (from 50 to 0.068 μg/mL) to obtain sensor grams at various concentrations. The sensor grams of the respective antibodies were converted to sensor grams of specific reactions by deducing a sensor gram obtained using chimeric antibody KM871 (Shitara K. et al., Cancer Immunol. Immunother., 36, 373-380, 1993) to GD3 as a negative control. […] Accordingly, the binding activity of the various antibodies was compared in terms of the binding [resonance signal (RU)] in the binding reaction. […] The effect of restoring the binding activity was not observed in the 6 amino acid residues of FR of VH.

## O=C(O)Cc1ccccc1Nc1c(Cl)cccc1Cl [sodium diclofenac]
[1]
  degree of the inhibition of the arthritic score compared with the KM1334 administrated group: the same
[2]; Table 2, soft X-ray of calcaneus, adjuvant-untreated paw, day 21, maximum 5, mean ± standard error, oral comparators
  Bone destruction score: 3.1 ± 0.6
[2]; Table 2, vs solvent group
  Bone destruction score (% inhibition): 33%
[2]; day 21, oral, 1 mL per 100 g: sodium diclofenac 0.3 mg/mL, methotrexate 0.01 mg/mL, prednisolone 0.3 mg/mL, vs solvent group
  inhibition of the increase in paw volume, adjuvant-untreated paw: 45%
[2]; urine day 20 to 21, oral comparators vs solvent group, diclofenac and prednisolone not significant
  inhibition of the increase (decrease) in amount of glycosaminoglycan in urine: 40%
[2]; urine day 20 to 21, oral comparators vs solvent group, methotrexate and prednisolone not significant
  inhibition of the increase (decrease) in amount of deoxypyridinoline in urine: 88%

B1: HV0LV0: YB2/0 cell-derived anti-FGF-8 neutralizing CDR-grafted antibody, VH HV.0 (SEQ ID NO. 18), VL LV.0 (SEQ ID NO. 19) (antibody, V domains shown)
VH: QVQLVQSGAEVKKPGASVKVSCKASGYTFTDYYLNWVRQAPGQGLEWMGEIDPGSDSIYYNENLEGRVTITADTSTSTAYMELSSLRSEDTAVYYCARYGYSRYDVRFVYWGQGTLVTVSS
VL: DIVMTQSPLSLPVTPGEPASISCRSSQSLVHSNGRTYLEWYLQKPGQSPQLLIYKVSNRISGVPDRFSGSGSGTDFTLKISRVEAEDVGVYYCFQGSHVPYTFGQGTKVEIK
modifications: HV.0, a designed amino acid sequence of VH of an anti-FGF-8 CDR-grafted neutralizing antibody; LV.0, a designed amino acid sequence of VL of an anti-FGF-8 CDR-grafted neutralizing antibody
FGF-8
  binding reaction [resonance signal (RU)]: slightly low in comparison to KM3334 and HV0LV6

B2: HV6LV6: YB2/0 cell-derived anti-FGF-8 neutralizing CDR-grafted antibody, VH HV.6 (SEQ ID NO. 20), VL LV.6 (SEQ ID NO. 21) (antibody, V domains shown)
VH: B1 VH with K12A, K13R, A40R, P41S, M48I, Y95F
VL: B1 VL with I2V, T14S, P15L, Q50K, L51V, Y92F
modifications: HV.6, a designed amino acid sequence of VH of an anti-FGF-8 CDR-grafted neutralizing antibody; LV.6, a designed amino acid sequence of VL of an anti-FGF-8 CDR-grafted neutralizing antibody
FGF-8
  binding reaction [resonance signal (RU)]: slightly low in comparison to KM3334 and HV0LV6
